# Experiments:
# Male NMRI mice [1] = test: Indomethacin induced blood loss in mice (fecal hemoglobin); type: in vivo; conditions: NSAID 30 mg/kg indomethacin; PDE4 inhibitor 100 mg/kg p.o., curative
# Method: Male NMRI mice (Charles River Laboratories, Sulzfeld, Germany) weighting 23-25 g were housed in groups of 5 under standard conditions at a temperature of 22° C.+/−2° C. and a 12 h light-dark cycle. If not otherwise stated animals had free access to tap water and standard food pellets. […] At time points −24, −16, 0 h, +7 h one of the selective PDE4 inhibitors was administered. […] At time points +1 h and +7 h one of the selective PDE4 inhibitors was administered. The drugs used were dissolved in 4% aqueous methyl cellulose. The animals were food reduced 24 h prior diclofenac administration. For each experiment 5 animals were used for one experimental point. Following 24 h administration of drugs animals were weighted and stool was collected quantitatively and homogenized as described below:
# The modified method of Welch (Clin. Chem. 29/12, 2022-2025, 1983) was used. The amount of hemoglobin was determined by the heme catalyzed oxidation of tolidine in the presence of hydrogen peroxide. Feces was homogenized in destined water in a concentration with 1 g feces/6.6 ml H20 with an ultra-turrax (IKA-Werke, Germany). […] The increase of OD 690 was monitored by a kinetic analysis and expressed as ΔOD690/min.
# [2] = molecular target: partially purified or recombinant PDE4; test: Inhibition of phosphodiesterase 4 in vitro; type: biochemical
# [3] = molecular target: partially purified or recombinant PDE5 (Homo sapiens, UniProt O76074); test: Inhibition of phosphodiesterase 5 in vitro; type: biochemical
# Male NMRI mice [4] = test: Diclofenac induced blood loss in mice (fecal hemoglobin); type: in vivo; conditions: for % reduction of ΔOD690/min: NSAID 100 mg/kg diclofenac
# Method: (§1) Male NMRI mice (Charles River Laboratories, Sulzfeld, Germany) weighting 23-25 g were housed in groups of 5 under standard conditions at a temperature of 22° C.+/−2° C. and a 12 h light-dark cycle. If not otherwise stated animals had free access to tap water and standard food pellets. Diclofenac was administrated at doses from 1-100 mg/kg p.o.; rolipram, roflumliast and RP73401 were given at doses from 1-100 mg/kg p.o. Preventive treatment: Diclofenac was given at time point 0 h. At time points −24, −16, 0 h, +7 h one of the selective PDE4 inhibitors was administered. Curative treatment: Diclofenac was given at time point 0 h. At time points +1 h and +7 h one of the selective PDE4 inhibitors was administered. The drugs used were dissolved in 4% aqueous methyl cellulose. The animals were food reduced 24 h prior diclofenac administration. For each experiment 5 animals were used for one experimental point. Following 24 h administration of drugs animals were weighted and stool was collected quantitatively and homogenized as described below:
# (§2) The modified method of Welch (Clin. Chem. 29/12, 2022-2025, 1983) was used. The amount of hemoglobin was determined by the heme catalyzed oxidation of tolidine in the presence of hydrogen peroxide. Feces was homogenized in destined water in a concentration with 1 g feces/6.6 ml H20 with an ultra-turrax (IKA-Werke, Germany). 500 μl aliquots from two different areas of the stool were taken to minimize error due to inhomogenous distribution of blood in the feces and heated 10 min at 95° C. to inactivate peroxidases and than diluted with 500 μl of acetic acid/H20 (30/70 vol/vol). Hemoglobin was extracted in 2.5 ml of acetic acid/H20 (30/70 vol/vol) by the addition of 4.5 ml ethyl acetate. The sample was rigorously shacked and the supernatant was used following a centrifugation step for optical detection of hemoglobin. Tolidine was prepared freshly from a stock solution (0.4 g tolidine in 10 ml ethanol) by mixing equal volumes of stock solution, H20 and acetic acid and equilibrated at room temperature. 20 μl of extracted supernatant was diluted to 100 μl ethyl acetate in a 96er crystal plate and incubated with 50 μl of the working solution. The reaction was initiated by the injection of 25 μl hydrogen peroxide (6%) in a Wallac Victor spectro-photometer (Turku, Finnland). The increase of OD 690 was monitored by a kinetic analysis and expressed as ΔOD690/min.
# [5] = tested on: isolated guinea pig Langendorff hearts; test: Isolated guinea pig Langendorff heart
# [6] = Diclofenac induced blood loss in mice (fecal hemoglobin); type: in vivo; conditions: male, NMRI, mouse, feces, oral; mice, 3-100 mg/kg p.o., spectrophotometric determination of fecal hemoglobin; read-out: ED50 of induced gastrointestinal bleeding
# Method: as §1, §2
Compound,IC50 [2],PDE4 activity (in words) [2],IC50 PDE5 [3],PDE5 activity (in words) [3],other results
COc1ccc(C(=O)Nc2c(Cl)cncc2Cl)cc1OC1CCCC1 [RP73401],–,–,–,–,% reduction of ΔOD690/min (Male NMRI mice [1]): 96%
"COc1ccc2c(c1)c(CC(=O)O)c(C)n2C(=O)c1ccc(Cl)cc1 [Indometacin, 1-(4-chlorobenzoyl)-5-methoxy-2-methyl-1H-indole-3-acetic acid]",~100 µM,only minor effects,62 µM,only minor effects,–
"O=C(Nc1c(Cl)cncc1Cl)c1ccc(OC(F)F)c(OCC2CC2)c1 [Roflumilast, 3-Cyclopropylmethoxy-4-difluoromethoxy-N-(3,5-dichloropyrid-4-yl)-benzamide]",–,–,–,–,"% reduction of ΔOD690/min (Male NMRI mice [4]; PDE4 inhibitor 3 mg/kg p.o., curative): 95%; % reduction of ΔOD690/min (Male NMRI mice [4]; PDE4 inhibitor 10 mg/kg p.o., preventive): 95%"
"CC(=O)Oc1ccccc1C(=O)O [ASS, 2-(acetyloxy)benzoic acid]",> 100 µM,only minor effects,>100 µM,only minor effects,–
"Cc1ccc(-c2cc(C(F)(F)F)nn2-c2ccc(S(N)(=O)=O)cc2)cc1 [Celecoxib, 4-[5-(4-methylphenyl)-3-(tri-fluoromethyl)-1H-pyrazol-1-yl]benzenesulfonamide]",6 µM,in the μM range,–,in the μM range,heart rate [5]: no effect; left ventricular pressure [5]: no effect; coronary heart flow ([5]; doses consistent with inhibitory potency on PDE4 and 5): selectively increased
"O=C(O)Cc1ccccc1Nc1c(Cl)cccc1Cl [Diclofenac, 2-[(2,6-dichlorophenyl)amino]benzeneacetic acid]",> 100 µM,only minor effects,>100 µM,only minor effects,ED50 at 24 h [6]: 56 mg/kg
CCCc1nn(C)c2c(=O)[nH]c(-c3cc(S(=O)(=O)N4CCN(C)CC4)ccc3OCC)nc12 [sildenafil],–,–,–,–,"protection from NSAID-induced blood loss (Male NMRI mice [4]; diclofenac 10-100 mg/kg p.o. t=0 h, sildenafil 3-100 mg/kg p.o. t=-48 h to +7 h): no protection"
"CS(=O)(=O)Nc1ccc([N+](=O)[O-])cc1Oc1ccccc1 [Nimesulide, 4′-nitro-2′-phenoxymethansulfonamide]",58 µM,in the μM range,25 µM,in the μM range,–
"CS(=O)(=O)Nc1cc2c(cc1Sc1ccc(F)cc1F)C(=O)CC2 [L-745337, 5-methanesulfonamido-6-(2,4-difluorophenylthio)-1-indanone]",31 µM,in the μM range,24 µM,in the μM range,–
"CS(=O)(=O)Nc1cc2c(cc1Oc1ccc(F)cc1F)C(=O)CC2 [CGP28238, 6-(2,4-difluorophenoxy)-5-methylsulfonylamino-1-indanone]",23 µM,in the μM range,14 µM,in the μM range,–
COc1ccc(C2CNC(=O)C2)cc1OC1CCCC1 (centres unmarked) [Rolipram],–,–,–,–,"% reduction of ΔOD690/min (Male NMRI mice [4]; PDE4 inhibitor 10 mg/kg p.o., curative): 82%; % reduction of ΔOD690/min (Male NMRI mice [4]; PDE4 inhibitor 30 mg/kg p.o., preventive): 90%; % reduction of ΔOD690/min (Male NMRI mice [1]): 65%"

# — patent US8242146B2, “Combination of a NSAID and a PDE-4 inhibitor” (Nycomed GmbH, priority 2002, dated 2012)
